Measured values: US9433580B2 (priority 2011, dated 2016)

Tested on: Pseudomonas aeruginosa
Assay: Burn wound infection model (mouse superficial skin model, thermal injury), log reduction of Pseudomonas aeruginosa
Assay type: in vivo, Swiss albino mice
Conditions: orally 25 mg/kg body weight, day 6
Protocol: Swiss albino mice were put into six groups and their backs were shaven. Thermal injury was induced in the shaven area by applying a heated brass rod on the back of the animals for 15 seconds to 20 seconds. For establishment of a topical infection, an inoculum containing approximately 2×10^5 bacteria (Pseudomonas aeruginosa) was injected subcutaneously (100 μL) on the sites of the burns. One hour post infection, the mice were treated using 100 mg of cream formulations of different drug concentrations. In case of all the cream formulations, 100 mg cream was applied topically twice daily for 5 days. One of the groups of mice was given Levofloxacin orally at 25 mg/kg body weight as a reference standard.

SMILES: C[C@H]1COc2c(N3CCN(C)CC3)c(F)cc3c(=O)c(C(=O)O)cn1c23 [Levofloxacin]
- Log reduction of microbial count: 5.53 log10
